Experimental data reported in ChEMBL document CHEMBL1201862, “PubChem BioAssay data set” (2004).
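Briefly, cells in 96-well plates were exposed to five compound concentrations for 48 h, and endpoints were estimated by linear interpolation. Abbreviation: GI50, concentration required for 50% inhibition of growth.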 Calls of active or inactive are those of the source. Rule as the data show it: active = GI50 up to about 1.1 µM and inactive = higher.

Key:
Test in all cases: growth of human tumour cells (NCI), 48 h
Malme-3M = tested on: Malme-3M
LOX IMVI = tested on: LOX IMVI
MOLT-4 = tested on: MOLT-4
SNB-19 = tested on: SNB-19
NCI-H522 = tested on: NCI-H522
HT-29 = tested on: HT-29
NCI-H460 = tested on: NCI-H460
Hs-578T = tested on: Hs-578T
SF-539 = tested on: SF-539
OVCAR-4 = tested on: OVCAR-4
UACC-62 = tested on: UACC-62
K562 = tested on: K562
IGROV-1 = tested on: IGROV-1
MCF7 = tested on: MCF7
SW-620 = tested on: SW-620
U-251 = tested on: U-251
HCT-116 = tested on: HCT-116
T47D = tested on: T47D
CCRF-CEM = tested on: CCRF-CEM
SK-MEL-28 = tested on: SK-MEL-28

Measured: GI50

N#CCCCC[N+]12CN3CN(CN(C3)C1)C2
inactive: Malme-3M > 100 µM | LOX IMVI 32.1 µM | MOLT-4 > 100 µM | SNB-19 > 100 µM | NCI-H522 > 100 µM | HT-29 > 100 µM | NCI-H460 > 100 µM | Hs-578T > 100 µM | SF-539 22.6 µM | OVCAR-4 > 100 µM | UACC-62 > 100 µM | K562 > 100 µM | IGROV-1 > 100 µM | MCF7 45.7 µM | SW-620 64.6 µM | U-251 > 100 µM | HCT-116 > 100 µM | T47D > 100 µM | CCRF-CEM 64 µM | SK-MEL-28 > 100 µM

COC1C(OC(=O)/C=C/C=C/C=C/C=C\C(=O)O)CCC2(CO2)C1C1(C)OC1CC=C(C)C (stereo not given)
inactive: Malme-3M 131 µM | LOX IMVI > 100 µM | MOLT-4 > 100 µM | SNB-19 > 100 µM | NCI-H522 > 100 µM | HT-29 > 100 µM | NCI-H460 > 100 µM | Hs-578T > 100 µM | SF-539 > 100 µM | OVCAR-4 > 100 µM | UACC-62 > 100 µM | K562 > 56.5 µM | IGROV-1 > 100 µM | MCF7 > 100 µM | SW-620 > 100 µM | U-251 > 100 µM | HCT-116 > 100 µM | T47D > 100 µM | CCRF-CEM > 100 µM | SK-MEL-28 > 100 µM

NC(Cc1ccnnc1)C(=O)O (stereo not given)
inactive: Malme-3M > 100 µM | LOX IMVI > 100 µM | MOLT-4 > 100 µM | SNB-19 > 100 µM | NCI-H522 > 100 µM | HT-29 > 100 µM | NCI-H460 > 100 µM | Hs-578T > 100 µM | SF-539 > 100 µM | OVCAR-4 > 100 µM | UACC-62 > 100 µM | K562 > 100 µM | IGROV-1 > 100 µM | MCF7 > 100 µM | SW-620 > 100 µM | U-251 > 100 µM | HCT-116 > 100 µM | T47D > 100 µM | CCRF-CEM > 100 µM | SK-MEL-28 > 100 µM

COC(=O)[C@@H](NS(=O)(=O)CC12CCC(CC1)C2(C)C)C(C)(C)C
inactive: Malme-3M > 100 µM | LOX IMVI > 100 µM | MOLT-4 4.85 µM | SNB-19 > 100 µM | NCI-H522 > 100 µM | HT-29 > 100 µM | NCI-H460 > 100 µM | Hs-578T > 100 µM | SF-539 > 100 µM | OVCAR-4 > 100 µM | UACC-62 > 100 µM | K562 > 100 µM | IGROV-1 > 100 µM | MCF7 > 100 µM | SW-620 > 100 µM | U-251 > 100 µM | HCT-116 > 100 µM | T47D > 100 µM | CCRF-CEM > 100 µM | SK-MEL-28 > 100 µM

CCOC(=O)C(NC(=O)c1ccccc1)(Nc1ccc(Cl)cc1C(F)(F)F)C(F)(F)F (stereo not given)
inactive: Malme-3M 3.37 µM | LOX IMVI 5.33 µM | MOLT-4 2.55 µM | SNB-19 5.48 µM | NCI-H522 2.59 µM | HT-29 2.15 µM | NCI-H460 > 20.5 µM | Hs-578T 39.3 µM | SF-539 5.71 µM | OVCAR-4 9.77 µM | UACC-62 5.3 µM | K562 2.47 µM | IGROV-1 4.03 µM | MCF7 4.83 µM | SW-620 2.88 µM | U-251 3.74 µM | HCT-116 3.78 µM | T47D 4.39 µM | CCRF-CEM 1.7 µM | SK-MEL-28 6.97 µM

O=c1[nH]nc(-c2ccccc2)n1O
inactive: Malme-3M > 100 µM | LOX IMVI > 100 µM | MOLT-4 > 100 µM | SNB-19 > 100 µM | NCI-H522 > 100 µM | HT-29 > 100 µM | NCI-H460 > 100 µM | Hs-578T > 100 µM | SF-539 > 100 µM | OVCAR-4 > 100 µM | UACC-62 > 100 µM | K562 > 100 µM | IGROV-1 > 100 µM | MCF7 > 100 µM | SW-620 > 100 µM | U-251 > 100 µM | HCT-116 > 100 µM | T47D > 100 µM | CCRF-CEM > 100 µM | SK-MEL-28 > 100 µM
